From patent US5266707A, “3,5-dihydroxyheptanoic acid derivatives” (Fujirebio Inc., priority 1991, dated 1993)
Read-outs that look alike come from different tables or passages of the source.

Columns and labels:
HMG-CoA Reductase = molecular target: T1, HMG-CoA Reductase (Rattus norvegicus, UniProt P51639); assay: Measurement of Inhibitory Activity on HMG-CoA Reductase (activity ratio of biosynthesis of cholesterol); format: biochemical
T1 construct: from tissue
T1 sequence (P51639 1-887): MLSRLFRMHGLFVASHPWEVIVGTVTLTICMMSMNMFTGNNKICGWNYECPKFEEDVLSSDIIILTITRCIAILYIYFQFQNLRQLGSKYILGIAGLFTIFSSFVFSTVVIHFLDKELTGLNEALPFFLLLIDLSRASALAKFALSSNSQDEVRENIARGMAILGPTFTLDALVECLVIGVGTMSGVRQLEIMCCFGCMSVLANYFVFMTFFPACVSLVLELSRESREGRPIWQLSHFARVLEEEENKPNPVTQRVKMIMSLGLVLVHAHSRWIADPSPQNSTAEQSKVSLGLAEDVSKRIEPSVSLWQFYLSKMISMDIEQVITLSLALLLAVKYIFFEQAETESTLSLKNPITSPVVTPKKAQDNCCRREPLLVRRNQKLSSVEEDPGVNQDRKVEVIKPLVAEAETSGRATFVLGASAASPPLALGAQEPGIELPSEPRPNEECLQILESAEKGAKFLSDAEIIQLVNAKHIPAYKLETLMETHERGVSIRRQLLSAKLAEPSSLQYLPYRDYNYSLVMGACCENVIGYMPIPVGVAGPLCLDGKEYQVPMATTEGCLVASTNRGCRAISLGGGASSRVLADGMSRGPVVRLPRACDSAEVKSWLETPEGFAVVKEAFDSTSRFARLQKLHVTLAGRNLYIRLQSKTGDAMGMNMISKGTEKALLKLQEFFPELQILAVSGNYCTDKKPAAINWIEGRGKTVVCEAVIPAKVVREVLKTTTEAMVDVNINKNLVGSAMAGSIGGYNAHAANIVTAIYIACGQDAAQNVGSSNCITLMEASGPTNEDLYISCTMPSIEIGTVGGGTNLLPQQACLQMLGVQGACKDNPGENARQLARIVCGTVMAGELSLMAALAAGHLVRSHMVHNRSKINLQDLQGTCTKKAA

[1] = tested on: total serum cholesterol in model rats with Triton-induced hyperlipemia; assay: Measurement of Reduction in Cholesterol Value (total serum cholesterol, Triton-induced hyperlipemia model rats); format: in vivo, rat; details: value of Compactin (ML-236B) as reference (100)
[2] = tested on: automatic TBARS reproduction of the rat brain homogenate; assay: Measurement of Anti-oxidation Function (inhibition of automatic TBARS reproduction of rat brain homogenate); format: biochemical; details: inhibition of TBARS in rat brain homogenate
[3] = Relative value when the value of Compactin is 100

Cc1c(CCC(O)CC(O)CC(=O)O)c2c(c(C)c1-n1cc3ccccc3c1)CC(C)(C)O2 (racemic) [Compound No. 94, sodium 7-[2,3-dihydro-5-isoindolyl-2,2,4,6-tetramethylbenzo[b]furan-7-yl]-3,5-dihydroxyheptanoate]
Activity ratio of Biosynthesis of Cholesterol, Reactive Inhibitory Potency (HMG-CoA Reductase; [3]): 1550

CC[C@H](C)C(=O)O[C@H]1CCC=C2C=C[C@H](C)[C@H](CC[C@@H]3C[C@@H](O)CC(=O)O3)[C@H]21 [Compactin, reference compound]
Reduction of Cholesterol Value [1]: 100

Cc1c(CC[C@H]2C[C@H](O)CC(=O)O2)c2c(c(C)c1N1CCCC1)CC(C)(C)O2 (racemic) [Compound No. 17, trans-(±)-6-[2,3-dihydro-2,2,4,6-tetramethyl-5-(pyrrolidin-1-yl)benzo[b]furan-7-yl]ethyl-4-hydroxytetrahydropyran-2-one]
IC50 [2]: 1490 nM

Cc1c(CC[C@H]2C[C@H](O)CC(=O)O2)c2c(c(C)c1N1Cc3ccccc3C1)CC(C)(C)O2 (racemic) [Compound No. 13, trans-(±)-6-[2,3-dihydro-5-(isoindolin-2-yl)-2,2,4,6-tetramethylbenzo[b]furan-7-yl]ethyl-4-hydroxytetrahydropyran-2-one]
Activity ratio of Biosynthesis of Cholesterol, Reactive Inhibitory Potency (HMG-CoA Reductase; [3]): 250
Reduction of Cholesterol Value [1]: 180
IC50 [2]: 1440 nM

Cc1c(CCC(O)CC(O)CC(=O)O)c2c(c(C)c1N1Cc3ccccc3C1)CC(C)(C)O2 (stereo not shown) [Compound No. 12, 7-[2,3-dihydro-5-(isoindolin-2-yl)-2,2,4,6-tetramethylbenzo[b]furan-7-yl]3,5-dihydroxyheptoic acid]
Activity ratio of Biosynthesis of Cholesterol, Reactive Inhibitory Potency (HMG-CoA Reductase; [3]): 1500
Reduction of Cholesterol Value [1]: 330
IC50 [2]: 1580 nM

Cc1c(CCC(O)CC(O)CC(=O)[O-])c2c(c(C)c1N1Cc3ccccc3C1)CC(C)(C)O2.[Na+] (stereo not shown) [Compound No. 15, sodium 7-[2,3-dihydro-5-(isoindolin-2-yl)-2,2,4,6-tetramethylbenzo[b]furan-7-yl]-3,5-dihydroxyheptanoate]
Activity ratio of Biosynthesis of Cholesterol, Reactive Inhibitory Potency (HMG-CoA Reductase): 830
Reduction of Cholesterol Value [1]: 320
IC50 [2]: 1670 nM

Cc1c(CC[C@H]2C[C@H](O)CC(=O)O2)c2c(c(C)c1N1CCc3ccccc3C1)CC(C)(C)O2 (racemic) [Compound No. 24, trans-(±)-6-[2,3-dihydro-5-(1,2,3,4-tetrahydroisoquinolin-2-yl)-2,2,4,6-tetramethylbenzo[b]furan-7-yl]ethyl-4-hydroxytetrahydropyran-2-one]
IC50 [2]: 1630 nM

Cc1c(CC[C@@H]2C[C@@H](O)CC(=O)O2)c2c(c(C)c1-n1cc3ccccc3c1)CC(C)(C)O2 (relative stereo) [Compound No. 14, trans-(±)-6-[2,3-dihydro-5-isoindolyl-2,2,4,6-tetramethylbenzo[b]furan-7-yl]ethyl-4-hydroxytetrahydropyran-2-one]
Activity ratio of Biosynthesis of Cholesterol, Reactive Inhibitory Potency (HMG-CoA Reductase; [3]): 250

Cc1c(N)c(C)c2c(c1CC[C@H]1C[C@H](O)CC(=O)O1)OC(C)(C)C2 (racemic) [Compound No. 10, trans-(±)-6-[5-amino-2,3-dihydro-2,2,4,6-tetramethylbenzo[b]furan-7-yl]ethyl-4-hydroxytetrahydropyran-2-one]
IC50 [2]: 2750 nM

CC(C)c1c(N2Cc3ccccc3C2)cc2c(c1CCC(O)CC(O)CC(=O)[O-])OC(C)(C)C2.[Na+] (stereo not shown) [Compound No. 76, sodium 7-[2,3-dihydro-5-(isoindolin-2-yl)-2,2-dimethyl-6-(propan-2-yl)benzo[b]furan-7-yl]-3,5-dihydroxyheptanoate]
Activity ratio of Biosynthesis of Cholesterol, Reactive Inhibitory Potency (HMG-CoA Reductase): 2730
IC50 [2]: 6500 nM

Cc1c2c(c(CC[C@H]3C[C@H](O)CC(=O)O3)c(C(C)C)c1NCc1ccccc1)OC(C)(C)C2 (racemic) [Compound No. 43, trans-(±)-6-[5-benzylamino-2,3-dihydro-2,2,4-trimethyl-6-(propan-2-yl)benzo[b]furan-7-yl]ethyl-4-hydroxytetrahydropyran-2-one]
Activity ratio of Biosynthesis of Cholesterol, Reactive Inhibitory Potency (HMG-CoA Reductase; [3]): 170

CC1(C)Cc2cc(N3Cc4ccccc4C3)c(C(C)(C)C)c(CCC(O)CC(O)CC(=O)O)c2O1 (stereo not shown) [Compound No. 93, sodium 7-[6-(t-butyl)-2,3-dihydro-5-(isoindolin-2-yl)-2,2-dimethylbenzo[b]furan-7-yl]-3,5-dihydroxyheptanoate]
IC50 [2]: 2000 nM
